Measurements published in patent publication US11986450B2, “Methods and compositions for treating infection and inflammation with selenocyanate” (National Jewish Health, priority 2017, dated 2024).

Key:
DmTrxR (containing Cys) = DmTrxR (containing Cys) (Drosophila melanogaster, UniProt P91938); assay: Inactivation of TrxR by oxidants; format: biochemical
Method: (§1) Based on data, it is expected that Sec-TrxR1 is able to metabolize both HOSCN and HOSeCN but not HOCl, and that Cys-TrxR's is unable to metabolize these oxidants. The active site Cys or Sec residue of each respective enzyme is oxidized to either Cys-SO2^− or Sec-SeO2^−. The Cys-TrxR cannot recover from this oxidation while the Sec-TrxR can. To test this, an inactivation assay is performed followed by structural analysis of the protein by MS. In the inactivation assay, (i) enzymes are reduced with NADPH, (ii) the enzymes are treated with oxidant followed by desalting to remove oxidant, and (iii) the enzyme is assayed for activity. […] The proteins are proteolyzed followed by LC-MS analyses. The LC-MS profiles are compared to control samples not treated with oxidant. This determines the exact mechanism of inactivation for each enzyme. […] This would explain why HOCl is highly inflammatory (nonspecific oxidation), and why HOSCN is used as a bactericide because it can rapidly inactivate proteins/enzyme by oxidation of sulfur amino acids (Cys, Met), but can be metabolized by the host cell by Sec-TrxR.

[1] = molecular target: Sec-containing TrxR2 (Sec-TrxR2) (Mus musculus, UniProt Q9JLT4); assay: Inactivation of TrxR by oxidants; format: biochemical
Method: as §1

Sequence of DmTrxR (containing Cys) (P91938 112-596 limits assumed): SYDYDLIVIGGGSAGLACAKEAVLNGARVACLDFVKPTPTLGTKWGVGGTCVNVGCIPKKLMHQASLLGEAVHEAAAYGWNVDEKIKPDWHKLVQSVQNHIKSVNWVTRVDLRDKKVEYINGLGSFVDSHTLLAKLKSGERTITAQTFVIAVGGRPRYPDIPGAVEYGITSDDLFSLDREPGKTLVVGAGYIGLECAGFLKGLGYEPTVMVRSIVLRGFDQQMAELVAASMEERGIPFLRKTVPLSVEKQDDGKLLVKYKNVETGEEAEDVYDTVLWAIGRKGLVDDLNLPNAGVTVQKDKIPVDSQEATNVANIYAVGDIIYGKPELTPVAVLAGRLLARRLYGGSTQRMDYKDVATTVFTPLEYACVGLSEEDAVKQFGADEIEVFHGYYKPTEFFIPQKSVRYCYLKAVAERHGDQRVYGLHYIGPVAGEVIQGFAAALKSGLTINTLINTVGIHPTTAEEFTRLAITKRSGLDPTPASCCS
Sequence of Sec-containing TrxR2 (Sec-TrxR2) (Q9JLT4 35-524): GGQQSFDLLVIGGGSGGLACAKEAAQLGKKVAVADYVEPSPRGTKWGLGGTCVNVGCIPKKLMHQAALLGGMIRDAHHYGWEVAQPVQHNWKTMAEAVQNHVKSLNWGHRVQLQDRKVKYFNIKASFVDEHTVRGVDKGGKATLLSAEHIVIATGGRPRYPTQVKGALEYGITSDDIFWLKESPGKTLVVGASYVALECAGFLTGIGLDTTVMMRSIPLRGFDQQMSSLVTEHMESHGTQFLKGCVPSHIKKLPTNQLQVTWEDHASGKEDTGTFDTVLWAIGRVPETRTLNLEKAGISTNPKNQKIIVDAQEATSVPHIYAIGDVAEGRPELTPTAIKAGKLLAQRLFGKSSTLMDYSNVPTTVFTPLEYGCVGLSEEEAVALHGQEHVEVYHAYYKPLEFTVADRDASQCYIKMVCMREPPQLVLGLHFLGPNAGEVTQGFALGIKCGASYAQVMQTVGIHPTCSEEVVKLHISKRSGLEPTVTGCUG

## N#CSO [HOSCN, hypothiocyanite]
DmTrxR (containing Cys)
  Inactivation of DmTrxR by oxidant: is inactivated
[1]
  Inactivation of Sec-TrxR2 by oxidant: resists inactivation
